Measurements taken from PubChem BioAssay AID1963977 (Molecular Pharmacology Branch, DTP, NCI, 2024).
Values joined by “and” are separate entries in the source; they are usually repeats but may differ in a detail not shown here. Equal entries are not always repeated.

Tested on: 624824-186-R-J3-PDC multicell spheroids, viability
Assay: Anticancer human tumor 624824-186-R-J3-PDC patient-derived colon adenocarcinoma cell line growth inhibition [PI3K]
Settings: for viability, T/C: stronger effect = lower value
Procedure, shortened: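 Complex 3D spheroids (cancer cells + endothelial HUVEC + mesenchymal stem cells); drug pairs of targeted agent x inavolisib/alpelisib/duvelisib/copanlisib; half-log series from ~Cmax, max 10 microM if Cmax unknown; endpoint viability.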

[1] = curve of first compound, second compound 0.0316 µM
[2] = curve of first compound, second compound 0.1 µM
[3] = curve of first compound, second compound 0.316 µM
[4] = curve of first compound, second compound 1 µM
[5] = curve of first compound, second compound 3.16 µM
[6] = curve of first compound, second compound 10 µM
[7] = second compound 0.0316 µM, first compound 0.000316 µM
[8] = second compound 0.0316 µM, first compound 0.001 µM
[9] = second compound 0.0316 µM, first compound 0.00316 µM
[10] = second compound 0.0316 µM, first compound 0.01 µM
[11] = second compound 0.0316 µM, first compound 0.0316 µM
[12] = second compound 0.0316 µM, first compound 0.1 µM
[13] = second compound 0.1 µM, first compound 0.000316 µM
[14] = second compound 0.1 µM, first compound 0.001 µM
[15] = second compound 0.1 µM, first compound 0.00316 µM
[16] = second compound 0.1 µM, first compound 0.01 µM
[17] = second compound 0.1 µM, first compound 0.0316 µM
[18] = second compound 0.1 µM, first compound 0.1 µM
[19] = second compound 0.316 µM, first compound 0.000316 µM
[20] = second compound 0.316 µM, first compound 0.001 µM
[21] = second compound 0.316 µM, first compound 0.00316 µM
[22] = second compound 0.316 µM, first compound 0.01 µM
[23] = second compound 0.316 µM, first compound 0.0316 µM
[24] = second compound 0.316 µM, first compound 0.1 µM
[25] = second compound 1 µM, first compound 0.000316 µM
[26] = second compound 1 µM, first compound 0.001 µM
[27] = second compound 1 µM, first compound 0.00316 µM
[28] = second compound 1 µM, first compound 0.01 µM
[29] = second compound 1 µM, first compound 0.0316 µM
[30] = second compound 1 µM, first compound 0.1 µM
[31] = second compound 3.16 µM, first compound 0.0316 µM
[32] = second compound 3.16 µM, first compound 0.1 µM
[33] = second compound 10 µM, first compound 0.0316 µM
[34] = second compound 10 µM, first compound 0.1 µM
[35] = curve of first compound, second compound 0.00316 µM
[36] = curve of first compound, second compound 0.01 µM
[37] = second compound 0.00316 µM, first compound 0.000316 µM
[38] = second compound 0.00316 µM, first compound 0.001 µM
[39] = second compound 0.00316 µM, first compound 0.00316 µM
[40] = second compound 0.00316 µM, first compound 0.01 µM
[41] = second compound 0.00316 µM, first compound 0.0316 µM
[42] = second compound 0.00316 µM, first compound 0.1 µM
[43] = second compound 0.01 µM, first compound 0.000316 µM
[44] = second compound 0.01 µM, first compound 0.001 µM
[45] = second compound 0.01 µM, first compound 0.00316 µM
[46] = second compound 0.01 µM, first compound 0.01 µM
[47] = second compound 0.01 µM, first compound 0.0316 µM
[48] = second compound 0.01 µM, first compound 0.1 µM
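Note: spheroids exposed to agents for seven days before luminescence read.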
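Throughout, for viability, T/C: luminescent signal used as a stand-in for spheroid viability; percent viability relative to DMSO vehicle control wells taken as 100%.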

Compound: Cn1ncnc1[C@H]1c2n[nH]c(=O)c3cc(F)cc(c23)N[C@@H]1c1ccc(F)cc1 + CC(Nc1ncnc2nc[nH]c12)c1cc2cccc(Cl)c2c(=O)n1-c1ccccc1
- IC50 [1]: > 100 nM
- IC50 [2]: > 100 nM
- IC50 [3]: > 100 nM
- IC50 [4]: > 100 nM
- IC50 [5]: > 100 nM
- IC50 [6]: > 100 nM
- viability, T/C [7]: 104%
- viability, T/C [8]: 101%
- viability, T/C [9]: 135%
- viability, T/C [10]: 104%
- viability, T/C [11]: 116%
- viability, T/C [12]: 117%
- viability, T/C [13]: 104%
- viability, T/C [14]: 96.3%
- viability, T/C [15]: 107%
- viability, T/C [16]: 102%
- viability, T/C [17]: 95.9%
- viability, T/C [18]: 120%
- viability, T/C [19]: 99.2%
- viability, T/C [20]: 108%
- viability, T/C [21]: 110%
- viability, T/C [22]: 106%
- viability, T/C [23]: 114%
- viability, T/C [24]: 118%
- viability, T/C [25]: 98.5%
- viability, T/C [26]: 105%
- viability, T/C [27]: 105%
- viability, T/C [28]: 101%
- viability, T/C [29]: 111%
- viability, T/C [30]: 111%
- viability, T/C (second compound 3.16 µM, first compound 0.000316 µM): 109%
- viability, T/C (second compound 3.16 µM, first compound 0.001 µM): 107%
- viability, T/C (second compound 3.16 µM, first compound 0.00316 µM): 109%
- viability, T/C (second compound 3.16 µM, first compound 0.01 µM): 110%
- viability, T/C [31]: 104%
- viability, T/C [32]: 112%
- viability, T/C (second compound 10 µM, first compound 0.000316 µM): 97.8%
- viability, T/C (second compound 10 µM, first compound 0.001 µM): 93%
- viability, T/C (second compound 10 µM, first compound 0.00316 µM): 101%
- viability, T/C (second compound 10 µM, first compound 0.01 µM): 98.2%
- viability, T/C [33]: 90.1%
- viability, T/C [34]: 95.1%

Compound: C[C@@H](NC(=O)c1ncnc(N)c1Cl)c1ncc(C(=O)Nc2cc(C(F)(F)F)c(Cl)cn2)s1
- viability, T/C (compound 0.0316 µM): 103% and 100% and 120%
- viability, T/C (compound 0.1 µM): 96.1% and 93.2% (2×)
- viability, T/C (compound 0.316 µM): 99.7% and 104% and 102%
- viability, T/C (compound 1 µM): 99.9% and 97.9% and 107%
- viability, T/C (compound 3.16 µM): 94.9% and 98.1% and 99.8%
- viability, T/C (compound 10 µM): 89.5% and 97.3% and 104%
- IC50 (curve of compound): > 10000 nM

Compound: CC1(C)CCC(CN2CCN(c3ccc(C(=O)NS(=O)(=O)c4ccc(NCC5CCOCC5)c([N+](=O)[O-])c4)c(Oc4cnc5[nH]ccc5c4)c3)CC2)=C(c2ccc(Cl)cc2)C1 + CC(Nc1ncnc2nc[nH]c12)c1cc2cccc(Cl)c2c(=O)n1-c1ccccc1
- IC50 [1]: 7770 nM
- IC50 [2]: 7330 nM
- IC50 [3]: 8720 nM
- IC50 [4]: 7870 nM
- IC50 [5]: 8480 nM
- IC50 [6]: 9000 nM
- viability, T/C [11]: 112%
- viability, T/C [12]: 94.8%
- viability, T/C (second compound 0.0316 µM, first compound 0.316 µM): 116%
- viability, T/C (second compound 0.0316 µM, first compound 1 µM): 96.7%
- viability, T/C (second compound 0.0316 µM, first compound 3.16 µM): 106%
- viability, T/C (second compound 0.0316 µM, first compound 10 µM): 34.5%
- viability, T/C [17]: 103%
- viability, T/C [18]: 92.4%
- viability, T/C (second compound 0.1 µM, first compound 0.316 µM): 91.4%
- viability, T/C (second compound 0.1 µM, first compound 1 µM): 90.1%
- viability, T/C (second compound 0.1 µM, first compound 3.16 µM): 111%
- viability, T/C (second compound 0.1 µM, first compound 10 µM): 32.5%
- viability, T/C [23]: 110%
- viability, T/C [24]: 114%
- viability, T/C (second compound 0.316 µM, first compound 0.316 µM): 108%
- viability, T/C (second compound 0.316 µM, first compound 1 µM): 106%
- viability, T/C (second compound 0.316 µM, first compound 3.16 µM): 117%
- viability, T/C (second compound 0.316 µM, first compound 10 µM): 41.6%
- viability, T/C [29]: 97.9%
- viability, T/C [30]: 111%
- viability, T/C (second compound 1 µM, first compound 0.316 µM): 112%
- viability, T/C (second compound 1 µM, first compound 1 µM): 99.2%
- viability, T/C (second compound 1 µM, first compound 3.16 µM): 117%
- viability, T/C (second compound 1 µM, first compound 10 µM): 35%
- viability, T/C [31]: 109%
- viability, T/C [32]: 97.2%
- viability, T/C (second compound 3.16 µM, first compound 0.316 µM): 102%
- viability, T/C (second compound 3.16 µM, first compound 1 µM): 111%
- viability, T/C (second compound 3.16 µM, first compound 3.16 µM): 125%
- viability, T/C (second compound 3.16 µM, first compound 10 µM): 40.1%
- viability, T/C [33]: 88.6%
- viability, T/C [34]: 95.3%
- viability, T/C (second compound 10 µM, first compound 0.316 µM): 94.6%
- viability, T/C (second compound 10 µM, first compound 1 µM): 93.8%
- viability, T/C (second compound 10 µM, first compound 3.16 µM): 108%
- viability, T/C (second compound 10 µM, first compound 10 µM): 45.3%

Compound: Cc1nc(NC(=O)N2CCCC2C(N)=O)sc1-c1ccnc(C(C)(C)C(F)(F)F)c1 (configuration not stated)
- viability, T/C (compound 0.0316 µM): 102% [middle of 8 runs]
- viability, T/C (compound 0.1 µM): 108% [middle of 8 runs]
- viability, T/C (compound 0.316 µM): 109% [middle of 8 runs]
- viability, T/C (compound 1 µM): 107% [middle of 8 runs]
- viability, T/C (compound 3.16 µM): 94% [middle of 8 runs]
- viability, T/C (compound 10 µM): 72.8% [middle of 8 runs]
- IC50 (compound alone, run of 04/24/2023): > 10000 nM

Compound: CC(=O)c1c(C)c2cnc(Nc3ccc(N4CCNCC4)cn3)nc2n(C2CCCC2)c1=O + COc1c(OCCCN2CCOCC2)ccc2c3n(c(=NC(=O)c4cnc(N)nc4)nc12)CCN3
- IC50 [35]: > 100 nM
- IC50 [36]: > 100 nM
- IC50 [1]: > 100 nM
- IC50 [2]: 93 nM
- IC50 [3]: 0.852 nM
- IC50 [4]: < 0.316 nM
- viability, T/C [37]: 99.3%
- viability, T/C [38]: 97.3%
- viability, T/C [39]: 107%
- viability, T/C [40]: 96.7%
- viability, T/C [41]: 93%
- viability, T/C [42]: 108%
- viability, T/C [43]: 104%
- viability, T/C [44]: 103%
- viability, T/C [45]: 104%
- viability, T/C [46]: 105%
- viability, T/C [47]: 98.8%
- viability, T/C [48]: 116%
- viability, T/C [7]: 90.9%
- viability, T/C [8]: 106%
- viability, T/C [9]: 86.6%
- viability, T/C [10]: 87.3%
- viability, T/C [11]: 93.7%
- viability, T/C [12]: 80.4%
- viability, T/C [13]: 75.1%
- viability, T/C [14]: 75.8%
- viability, T/C [15]: 74.4%
- viability, T/C [16]: 74%
- viability, T/C [17]: 70.5%
- viability, T/C [18]: 48.6%
- viability, T/C [19]: 52.9%
- viability, T/C [20]: 46.5%
- viability, T/C [21]: 49.9%
- viability, T/C [22]: 40.2%
- viability, T/C [23]: 35.6%
- viability, T/C [24]: 26.4%
- viability, T/C [25]: 27.6%
- viability, T/C [26]: 32%
- viability, T/C [27]: 28.3%
- viability, T/C [28]: 26.7%
- viability, T/C [29]: 21.5%
- viability, T/C [30]: 19.7%

Compound: Cn1ncnc1[C@H]1c2n[nH]c(=O)c3cc(F)cc(c23)N[C@@H]1c1ccc(F)cc1 + COc1c(OCCCN2CCOCC2)ccc2c3n(c(=NC(=O)c4cnc(N)nc4)nc12)CCN3
- IC50 [35]: > 100 nM
- IC50 [36]: > 100 nM
- IC50 [1]: > 100 nM
- IC50 [2]: > 100 nM
- IC50 [3]: < 0.316 nM
- IC50 [4]: < 0.316 nM
- viability, T/C [37]: 103%
- viability, T/C [38]: 97.5%
- viability, T/C [39]: 102%
- viability, T/C [40]: 96.3%
- viability, T/C [41]: 90.1%
- viability, T/C [42]: 102%
- viability, T/C [43]: 115%
- viability, T/C [44]: 110%
- viability, T/C [45]: 102%
- viability, T/C [46]: 93.1%
- viability, T/C [47]: 97.1%
- viability, T/C [48]: 107%
- viability, T/C [7]: 91.1%
- viability, T/C [8]: 103%
- viability, T/C [9]: 88.5%
- viability, T/C [10]: 90.8%
- viability, T/C [11]: 87.2%
- viability, T/C [12]: 97.3%
- viability, T/C [13]: 77.1%
- viability, T/C [14]: 76%
- viability, T/C [15]: 83.1%
- viability, T/C [16]: 73.3%
- viability, T/C [17]: 75.3%
- viability, T/C [18]: 71%
- viability, T/C [19]: 48.3%
- viability, T/C [20]: 48.3%
- viability, T/C [21]: 54%
- viability, T/C [22]: 44.9%
- viability, T/C [23]: 48.7%
- viability, T/C [24]: 46%
- viability, T/C [25]: 27.3%
- viability, T/C [26]: 28%
- viability, T/C [27]: 30.1%
- viability, T/C [28]: 25.9%
- viability, T/C [29]: 23.9%
- viability, T/C [30]: 27%
